From BindingDB's records for doi:10.1073/pnas.92.19.8734 (Massachusetts General Hospital, 1995)

Assays:
[1] = biological target: Melatonin receptor type 1A (Homo sapiens, UniProt P48039)
[2] = biological target: T1, Melatonin receptor type 1B (Homo sapiens, UniProt P49286)
T1 sequence (P49286 whole entry): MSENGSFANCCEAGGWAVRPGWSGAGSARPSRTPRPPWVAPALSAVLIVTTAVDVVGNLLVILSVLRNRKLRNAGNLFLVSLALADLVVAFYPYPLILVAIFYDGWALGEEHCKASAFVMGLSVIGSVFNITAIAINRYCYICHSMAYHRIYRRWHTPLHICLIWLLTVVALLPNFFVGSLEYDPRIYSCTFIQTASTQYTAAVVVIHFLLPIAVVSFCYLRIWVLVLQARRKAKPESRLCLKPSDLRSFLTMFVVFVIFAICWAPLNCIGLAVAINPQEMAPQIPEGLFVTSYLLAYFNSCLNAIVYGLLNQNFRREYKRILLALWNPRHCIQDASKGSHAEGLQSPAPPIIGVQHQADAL

Melatonin receptor type 1A, sequence (P48039 whole entry): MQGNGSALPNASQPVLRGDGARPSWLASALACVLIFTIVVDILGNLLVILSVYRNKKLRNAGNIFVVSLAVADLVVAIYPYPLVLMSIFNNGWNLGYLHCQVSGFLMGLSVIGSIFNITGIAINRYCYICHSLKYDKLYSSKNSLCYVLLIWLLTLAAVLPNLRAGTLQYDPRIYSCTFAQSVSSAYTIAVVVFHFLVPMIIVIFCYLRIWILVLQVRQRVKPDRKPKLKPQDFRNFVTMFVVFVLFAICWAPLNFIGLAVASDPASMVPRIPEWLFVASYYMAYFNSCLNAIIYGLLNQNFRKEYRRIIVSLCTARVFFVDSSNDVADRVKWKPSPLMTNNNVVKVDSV

SMILES | Ki [1] | Ki [2]
CC(=O)n1cc(CCN)c2cc(O)ccc21 [NSC_260803] | 986 nM | 595 nM
NCCc1c[nH]c2ccc(O)cc12 [[3H]-5-HT] | – | > 10000 nM
COc1cc2nc(N3CCN(C(=O)c4ccco4)CC3)nc(N)c2cc1OC [[3H]-Minipress] | > 10000 nM | > 10000 nM
